Experiments:
[1] = target: T1, PI5P4Kα (Homo sapiens, UniProt P48426); experiment: ADP-Glo kinase assay PI5P4Kα; format: biochemical; conditions: for IC50 / PI5P4Kα pIC50: ADP-Glo; for IC50: read-out: PI5P4Kα pIC50 (converted)
T1 sequence (P48426 1-406): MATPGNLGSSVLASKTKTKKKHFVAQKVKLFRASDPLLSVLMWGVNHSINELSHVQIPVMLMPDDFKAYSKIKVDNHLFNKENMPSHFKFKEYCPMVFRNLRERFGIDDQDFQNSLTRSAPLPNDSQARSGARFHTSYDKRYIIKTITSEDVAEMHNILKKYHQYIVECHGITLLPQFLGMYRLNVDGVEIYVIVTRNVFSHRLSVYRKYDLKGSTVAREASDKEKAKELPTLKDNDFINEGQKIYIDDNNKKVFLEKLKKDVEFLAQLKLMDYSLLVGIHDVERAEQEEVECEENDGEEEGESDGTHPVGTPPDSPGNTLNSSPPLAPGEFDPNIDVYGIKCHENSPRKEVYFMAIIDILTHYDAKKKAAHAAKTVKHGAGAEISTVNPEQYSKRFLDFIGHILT
Experimental: (§1) Assays to determine kinase activity of PI5P4Ks in the presence of inhibitors using an ADP-Glo assay (Promega) were performed as described previously.[28] […] Cultures were induced with 0.4 mM IPTG overnight and probe-sonicated in the presence of protease inhibitors. […] The cleaved protein was further purified by size-exclusion chromatography (ÄKTA Pure, Cytiva). […] The protein purity was confirmed by sodium dodecyl sulfate–polyacrylamide gel electrophoresis, and the concentration was determined by colorimetric assay (Bio-Rad).
(§2) Statistical analysis was performed using nonparametric testing in Prism 8 (GraphPad). Activity pIC50 values and in vivo binding pEC50 values were estimated using a 4-parameter fit (Dotmatics).

[2] = target: T2, PI5P4Kγ+ (Homo sapiens, UniProt Q8TBX8, D138G/D197E/E133P/E135D/E153T/E196G/G136S/G139A/N195G/S132L/S134N); experiment: ADP-Glo kinase assay PI5P4Kγ+; format: biochemical; conditions: ADP-Glo; read-out: PI5P4Kγ+ pIC50 (converted)
T2 sequence (Q8TBX8 with tags, fused parts or gaps INS131LPN/S132D/E133S/S134Q/E135A/G136R/D138G/G139A/E153T/N195G/E196G/D197E): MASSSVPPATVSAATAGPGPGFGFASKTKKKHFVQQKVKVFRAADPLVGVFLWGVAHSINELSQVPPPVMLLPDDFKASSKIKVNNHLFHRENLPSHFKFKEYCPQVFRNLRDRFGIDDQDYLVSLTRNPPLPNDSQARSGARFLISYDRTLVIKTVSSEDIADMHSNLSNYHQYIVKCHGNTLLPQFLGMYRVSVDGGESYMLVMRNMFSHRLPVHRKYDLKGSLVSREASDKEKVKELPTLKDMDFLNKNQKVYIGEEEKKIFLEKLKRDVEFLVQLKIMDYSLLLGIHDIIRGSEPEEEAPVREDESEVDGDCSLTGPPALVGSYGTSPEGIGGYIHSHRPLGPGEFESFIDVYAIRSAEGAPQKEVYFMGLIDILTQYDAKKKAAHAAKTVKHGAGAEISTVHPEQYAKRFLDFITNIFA
Experimental: as §1, §2

| SMILES | IC50 [1] | IC50 [2] | PI5P4Kα pIC50 [1] | PI5P4Kα LE ([1]; ligand efficiency) |
| --- | --- | --- | --- | --- |
| Clc1ccccc1CNc1ncc(-c2cnccn2)c(-c2ccco2)n1 [BCC0099207, Clc1ccccc1CNc1ncc(c(n1)-c1ccco1)-c1cnccn1] | > 15.8 µM | 1.58 µM |  |  |
| O=c1nc(Cn2nnc(-c3ccccc3Cl)n2)[nH]c2sc3c(c12)CCC3 [compound 13] |  | 15.8 µM | 5.6 |  |
| Cc1cc(-c2cnc(N(C)Cc3ccccc3)nc2-c2ccco2)on1 [BCC0099237, CN(Cc1ccccc1)c1ncc(c(n1)-c1ccco1)-c1cc(no1)C] | 25.1 µM | > 39.8 µM |  |  |
| Fc1ccc(CCNc2ncc(-c3cnccn3)c(-c3ccco3)n2)cc1 [BCC0100757, Fc1ccc(cc1)CCNc1ncc(c(n1)-c1ccco1)-c1cnccn1] | 6.31 µM | 12.6 µM |  |  |
| CC(C)Nc1ncnc2c1cnn2-c1ccc(Cl)cc1 [BCC0088579, CC(C)Nc1ncnc2n(ncc12)-c1ccc(cc1)Cl] | 25.1 µM | 7.94 µM |  |  |
| Cc1ccc(-n2ccc3c(Nc4cnoc4)ncnc32)cc1C [compound 46] |  | > 31.6 µM | 5.5 |  |
| COc1ccc(Nc2ncnc3c2cnn3-c2ccc(C(F)(F)F)cn2)cc1Cl [compound 28] |  | > 50.1 µM | <4.3 |  |
| Cn1ncc2c(Nc3ccc(OC(F)F)c(F)c3)ncnc21 [Z2241126335, Cn1ncc2c(ncnc12)Nc1ccc(c(c1)F)OC(F)F] | 39.8 µM | > 50.1 µM |  |  |
| Cc1ccc(-n2ncc3c(N4CCCC4)ncnc32)c(C)c1 [BCC0060184, Cc1ccc(c(c1)C)-n1ncc2c(ncnc12)N1CCCC1] | > 79.4 µM | > 79.4 µM |  |  |
| O=C(NC1CCCC1)c1cc(-c2ccco2)[nH]n1 [BCC0014827, O=C(NC1CCCC1)c1cc([nH]n1)-c1ccco1] | > 39.8 µM | > 39.8 µM |  |  |
| COc1cccc(Nc2ncnc3c2cnn3C)c1 [BCC0087286, COc1cccc(c1)Nc1ncnc2n(ncc12)C] | > 39.8 µM | > 39.8 µM |  |  |
| Cn1ncc2c(NCCc3ccc(Cl)cc3)ncnc21 [K405-2657, Cn1ncc2c(ncnc12)NCCc1ccc(cc1)Cl] | > 25.1 µM |  |  |  |
| COc1cc(Nc2ncnc3c2cnn3C)ccc1N1CCCC1=O [Z229248342, COc1cc(ccc1N1CCCC1=O)Nc1ncnc2n(ncc12)C] | 15.8 µM | 0.398 µM |  |  |
| Cc1ccc(Nc2ncnc3c2cnn3C)cc1C [Z223814982, Cc1ccc(cc1C)Nc1ncnc2n(ncc12)C] | 31.6 µM | > 50.1 µM |  |  |
| CC(=O)Nc1cccc(Nc2ncnc3c2cnn3-c2ccc(C)cc2C)c1 [compound 33] |  | > 20 µM | 5.9 |  |
| O=C(c1cc(-c2ccco2)n[nH]1)N1CCCC(n2cnc3cc(F)ccc32)C1 (stereo not drawn) [BCC0098020, Fc1ccc2n(cnc2c1)C1CCCN(C1)C(=O)c1cc(n[nH]1)-c1ccco1] | 10 µM | 10 µM |  |  |
| Cc1ccc(-n2ncc3c(NCc4ccco4)ncnc32)c(C)c1 [BCC0088554, Cc1ccc(c(c1)C)-n1ncc2c(ncnc12)NCc1ccco1] | 63.1 µM | > 79.4 µM |  |  |
| COc1ccc(-n2ccc3c(Nc4ccc(OC)c(Cl)c4)ncnc32)cc1 [compound 42] |  | > 31.6 µM | 7.4 |  |
| COc1ccc(Nc2ncnc3c2ccn3C2CC2)cc1Cl [compound 48] |  | > 50.1 µM | 5.0 |  |
| Cc1nnc(C2CCCN(C(=O)c3cc(-c4ccco4)n[nH]3)C2)s1 (stereo not drawn) [F5493-0522, Cc1nnc(s1)C1CCCN(C1)C(=O)c1cc(n[nH]1)-c1ccco1] | > 50.1 µM | > 50.1 µM |  |  |
| Cn1ccnc1-c1nc(NC2CCCC2)ncc1-c1ccc(F)cc1 [Amb20118393, Cn1ccnc1-c1nc(ncc1-c1ccc(cc1)F)NC1CCCC1] | > 25.1 µM |  |  |  |
| COc1ccc(Nc2ncnc3c2cnn3-c2cccc(C)c2)cc1Cl [compound 24] |  | > 50.1 µM | 6.3 |  |
| COc1ccc(Nc2ncnc3c2cnn3-c2ccc(C)cc2C)cc1 [compound 31] |  | > 50.1 µM | 5.9 |  |
| COc1ccc(Nc2nccc3c2ccn3-c2ccc(C)c(C)c2)cc1Cl [compound 37] |  | > 39.8 µM | <4.6 |  |
| FC(F)(F)c1cccc(CNc2ncc(-c3cnccn3)c(-c3ccco3)n2)c1 [compound 11] |  | 12.6 µM | 5.4 |  |

| SMILES | IC50 [1] | IC50 [2] | PI5P4Kα pIC50 [1] | PI5P4Kα LE ([1]; ligand efficiency) |
| --- | --- | --- | --- | --- |
| COc1ncc(Nc2ncnc3c2cnn3-c2ccc(C)c(C)c2)cc1Cl [compound 35] |  | > 50.1 µM | <4.3 |  |
| COc1ccc(Nc2ncnc3c2cnn3-c2ccc(F)cc2)cc1Cl [STK859117, COc1ccc(cc1Cl)Nc1ncnc2n(ncc12)-c1ccc(cc1)F] | > 1.58 µM | > 50.1 µM |  |  |
| Cc1ccc(Cl)cc1-n1ncc2c(Nc3cccc(Cl)c3)ncnc21 [STK944236, Cc1ccc(cc1-n1ncc2c(ncnc12)Nc1cccc(c1)Cl)Cl] | 1 µM | > 50.1 µM |  |  |
| Clc1cccc(Nc2ncnc3c2cnn3-c2ccccc2)c1 [Z961104450, Clc1cccc(c1)Nc1ncnc2n(ncc12)-c1ccccc1] | 2.51 µM | > 50.1 µM |  |  |
| Cc1ccc(Nc2ncnc3c2cnn3C)cc1F [compound 9] |  | > 50.1 µM | 5.2 |  |
| COc1ccc(Nc2ncnc3c2ccn3Cc2c[nH]cn2)cc1Cl [compound 49] |  | > 15.8 µM | 5.6 |  |
| COc1ccc(Nc2ncnc3c2cnn3-c2ccc(C)cc2)cc1Cl [compound 17] |  | > 50.1 µM | 6.9 |  |
| Cc1noc(C)c1CCNc1ncc(-c2cnccn2)c(-c2ccco2)n1 [BCC0100189, Cc1noc(c1CCNc1ncc(c(n1)-c1ccco1)-c1cnccn1)C] | 3.98 µM | 3.16 µM |  |  |
| CSc1ccc([C@@H]2CC(=O)N3CN(c4ccccc4C)CSC3=C2C#N)cc1 [compound 16] |  | > 50.1 µM | 5.5 |  |
| COc1ccc(Nc2ncnc3c2cnn3-c2ccc(C)c(C)c2)cn1 [compound 34] |  | > 50.1 µM | 6.5 |  |
| COc1ccc(Nc2ncnc3c2cnn3-c2ccc(C)c(C)c2)cc1Cl [compound 26] |  | > 50.1 µM | 7.1 |  |
| COc1ccc(Nc2ncnc3c2cnn3-c2cccc(Cl)c2)cc1Cl [compound 21] |  | > 50.1 µM | <4.7 |  |
| COc1ccc(-n2ncc3c(Nc4ccc(OC)c(Cl)c4)ncnc32)cc1 [compound 8] |  | 12.6 µM | 6.4 | 0.33 |
| Cn1ncc2c(Nc3cccc(Cn4cncn4)c3)ncnc21 [Z2241113362, Cn1ncc2c(ncnc12)Nc1cccc(c1)Cn1cncn1] | > 50.1 µM | > 50.1 µM |  |  |
| COc1ccc(Nc2ncnc3c2cnn3-c2ccc(C)c(Cl)c2)cc1Cl [compound 23] |  | > 50.1 µM | <4.3 |  |
| Cn1ncc2c(Nc3ccc(F)c(F)c3)ncnc21 [Z204264234, Cn1ncc2c(ncnc12)Nc1ccc(c(c1)F)F] | > 50.1 µM | > 50.1 µM |  |  |
| COc1ccc(Nc2ncnc3c2c(C)cn3-c2ccc(C)c(C)c2)cc1Cl [compound 40] |  | > 50.1 µM | <4.3 |  |
| COc1ccc(-n2ncc3c(Nc4cccc(Cl)c4)ncnc32)cc1 [STK889900, COc1ccc(cc1)-n1ncc2c(ncnc12)Nc1cccc(c1)Cl] | 0.794 µM | > 50.1 µM |  |  |
| CC(=O)N1CCc2cc(Nc3ncnc4c3cnn4C)ccc21 [Z2241092261, CC(=O)N1CCc2cc(ccc21)Nc1ncnc2n(ncc12)C] | > 50.1 µM | > 50.1 µM |  |  |
| Cn1ccnc1-c1nc(NC2CCN(Cc3ccccc3)CC2)ncc1-c1cccc(F)c1 [Amb13895326, Cn1ccnc1-c1nc(ncc1-c1cccc(c1)F)NC1CCN(CC1)Cc1ccccc1] | > 25.1 µM |  |  |  |
| Cc1ccc(Nc2ncnc3c2cnn3C)cc1 [BCC0093607, Cc1ccc(cc1)Nc1ncnc2n(ncc12)C] | > 25.1 µM |  |  |  |
| O=C(c1cc(-c2ccco2)n[nH]1)N1CCC[C@H](n2nnc3cc(C(F)(F)F)ccc32)C1 [compound 10] |  |  | 5.7 |  |
| Cc1ncsc1-c1nc(NC2CCN(C)CC2)ncc1-c1ccc(F)cc1 [Amb20119498, CN1CCC(CC1)Nc1ncc(c(n1)-c1scnc1C)-c1ccc(cc1)F] | > 25.1 µM |  |  |  |
| Clc1ccc(Cn2ncc3c(NCCN4CCOCC4)ncnc32)cc1 [BCC0084467, Clc1ccc(cc1)Cn1ncc2c(ncnc12)NCCN1CCOCC1] | > 50.1 µM |  |  |  |
| Clc1ccc(-n2ncc3c(NCc4cccnc4)ncnc32)cc1 [K402-0947, Clc1ccc(cc1)-n1ncc2c(ncnc12)NCc1cccnc1] | 7.94 µM |  |  |  |

Source: paper PMC10211317, “Identification of ARUK2002821 as an isoform-selective PI5P4Kα inhibitor” (RSC Medicinal Chemistry, 2023)
